According to patent US6544542B1, “Fat emulsions for inhalational administration” (Nippon Shinyaku Co., Ltd., priority 1998, dated 2003):

Experiment: Test Example 7: influence of the solubilization-effective surfactant concentration on nebulizer sprayability
Assay type: physicochemical

| Substance | nebulizer sprayability, CA | nebulizer sprayability, Dexamethasone palmitate | nebulizer sprayability, Guaiazulene |
| --- | --- | --- | --- |
| Triton X100 | Infeasible | – | – |
| Tween-80 | Infeasible | Infeasible | Infeasible |
